Laboratory results taken from US20210189503A1, “BIOMARKERS FOR DETERMINING RESPONSIVENESS OF A CANCER TO PI3K INHIBITORS” (MEMORIAL SLOAN-KETTERING CANCER CENTER, priority 2018, published 2021).

Columns and labels:
[1] = tested on: recombinant single and cis mutant PI3Kα complexes; assay: IC50 determination of recombinant PI3K (Transcreener ADP2 fluorescence intensity assay); details: among the recombinant single and cis mutant PI3Kα complexes
[2] = tested on: PIK3CA mutant MCF10A cells; assay: Cell viability / cell inhibition by PI3K inhibitors (CellTiter-Glo, dose-response survival); details: for sensitivity of cell growth to PI3Kα inhibition: E545K and H1047R major hotspot mutants compared to minor mutants and WT
[3] = tested on: PI3K pathway signaling in PIK3CA mutant NIH-3T3 cells; assay: Western blotting of PI3K effectors, NIH-3T3 cells; format: cell-based, mouse; details: BYL719 1 μM, 24 hours, serum starvation, vs single mutant cells
[4] = tested on: ER+ metastatic breast cancer; assay: Phase 1 clinical trial NCT01870505 of alpelisib (BYL719) plus aromatase inhibitor, PFS analysis; format: in vivo, human; details: with an aromatase inhibitor; for progression free survival: tumor NGS (FIG. 18C); for PFS (duration of response to PI3K inhibition): tumor and ctDNA NGS (FIG. 17E)
Experimental: Progression-free survival analysis was performed on patients enrolled in NCT01870505, a phase I clinical trial of BYL719 (alpelisib) plus letrozole or exemestane for patients (n=51) with hormone-receptor positive locally-advanced unresectable or metastatic breast cancer. 44/51 patients were analyzed for NGS of their tumors (MSK-IMPACT) and/or NGS of their ctDNA (Guardant) and were included in the analysis. Progression free survival was calculated and was compared between dual and single mutant patients. Clinical benefit rates (complete response, partial response or stable disease) were calculated and were compared between dual and single mutant patients using Fisher's exact test.
(§1) Retrospective PFS analysis was performed on tumors from a large breast cancer dataset (n=1918) sequenced by MSK-IMPACT ((Razavi et al., Cancer Cell 34, 427-438 e426 (2018)). Tumors were included in analysis if both pre- and post-endocrine therapy (aromatase inhibitor or fulvestrant) biopsies confirmed WT, single PIK3CA mutation, or multiple PIK3CA mutations. Kaplan-Meier curves were generated for PFS after firstline aromatase inhibitor or firstline fulvestrant therapy. PFS analysis was performed on patients enrolled in NCT01870505, a phase 1 clinical trial of alpelisib plus letrozole or exemestane for patients with hormone-receptor positive locally-advanced unresectable or metastatic breast cancer. 46/51 patients had biopsy samples that confirmed PIK3CA mutant or WT alleles by tumor NGS, and these 46 patients were included in the final analysis.

[5] = tested on: PI3K pathway signaling in PIK3CA mutant MCF10A cells; assay: Western blotting of PI3K effectors, MCF10A cells; details: BYL719 1 μM, 24 hours, serum starvation, vs single mutant cells
[6] = tested on: PIK3CA mutant and WT breast cancers; assay: Retrospective PFS analysis on endocrine therapy (aromatase inhibitor or fulvestrant); format: in vivo, human
Experimental: as §1

[7] = tested on: metastatic ER-positive PIK3CA mutant breast cancer; assay: […] phase III clinical trial of taselisib with fulvestrant, ctDNA PIK3CA analysis; format: in vivo, human; details: for overall response rate: taselisib arm (with fulvestrant)
Description: The present disclosure investigated the effects of multiple PIK3CA mutations on clinical response to PI3Kα inhibitors in metastatic breast cancer. The present disclosure analyzed response data from […], a phase III registrational clinical trial that tested the efficacy of the PI3Kα inhibitor taselisib (GDC-0032), with fulvestrant (an estrogen receptor [ER] degrader) in metastatic ER-positive PIK3CA mutant breast cancer. This is the largest randomized clinical study testing a PI3Kα inhibitor (631 patients).
Many patients with metastatic ER-positive breast cancer enrolled in this trial had bone metastases, which must be decalcified to be analyzed by NGS, which render DNA sequencing particularly challenging (Singh et al., Ann Diagn Pathol 17, 322-326 (2013)). Thus, the present disclosure used circulating tumor DNA (ctDNA), which has been utilized in many breast cancer clinical trials (Baselga et al., Lancet Oncol 18, 904-916 (2017); Andre et al., N Engl J Med 380, 1929-1940 (2019); Baselga et al., N Engl J Med 366, 520-529 (2012); Turner et al., N Engl J Med 373, 209-219 (2015)), to detect the presence of multiple mutations. Of the 631 patients on the trial, 598 had plasma samples available for analysis, of which 508 were adequate for testing (FIG. 19A). Samples were tested using the Foundation One liquid assay, which sequences the entire PIK3CA gene. Of the 339 patients with detected PIK3CA mutations, 66 (19%) had 2 or more PIK3CA mutations.
For analysis of the […] clinical trial (Baselga, Journal of Clinical Oncology, 2018, 36, no. 18_suppl.) patient ctDNA samples (n=631), 508 patient samples met quality control parameters and were analyzed by Foundation Medicine One Liquid assay (Clark et al., J Mol Diagn 20, 686-702 (2018)) which sequences […] of PIK3CA and can detect mutations at amino acid positions 545, 1047, 453, 726, and 1043 (FIG. 24). 339 samples were identified with PIK3CA mutations, of which 66 contained two or more PIK3CA mutations. Patients with measurable disease from the ctDNA PIK3CA mutant cohort, on the taselisib arm, were analyzed based on the percentage change in the sum of longest diameter (SLD) of target lesion from baseline, and were tabulated by waterfall plot. Patients with both measurable and nonmeasurable disease from the ctDNA PIK3CA mutant cohort were assessed on the placebo and taselisib arms for overall response rate (defined as tumor shrinkage >30%). 95% CI for rates were constructed using the Blyth-Still-Casella method. The CI for the difference in ORRs between the two treatment arms were determined using the normal approximation to the binomial distribution. Response rates in the treatment arms were compared (p-value) using the stratified Cochran-Mantel-Haenszel test.

[8] = biological target: p85α regulatory subunit of PI3Kα (PIK3R1), full length human, hexahistidine-tagged at the N-terminus (UniProt P27986)
Chain of p85α regulatory subunit of PI3Kα (PIK3R1), full length human, hexahistidine-tagged at the N-terminus (P27986 whole entry, looked up, tested part not stated): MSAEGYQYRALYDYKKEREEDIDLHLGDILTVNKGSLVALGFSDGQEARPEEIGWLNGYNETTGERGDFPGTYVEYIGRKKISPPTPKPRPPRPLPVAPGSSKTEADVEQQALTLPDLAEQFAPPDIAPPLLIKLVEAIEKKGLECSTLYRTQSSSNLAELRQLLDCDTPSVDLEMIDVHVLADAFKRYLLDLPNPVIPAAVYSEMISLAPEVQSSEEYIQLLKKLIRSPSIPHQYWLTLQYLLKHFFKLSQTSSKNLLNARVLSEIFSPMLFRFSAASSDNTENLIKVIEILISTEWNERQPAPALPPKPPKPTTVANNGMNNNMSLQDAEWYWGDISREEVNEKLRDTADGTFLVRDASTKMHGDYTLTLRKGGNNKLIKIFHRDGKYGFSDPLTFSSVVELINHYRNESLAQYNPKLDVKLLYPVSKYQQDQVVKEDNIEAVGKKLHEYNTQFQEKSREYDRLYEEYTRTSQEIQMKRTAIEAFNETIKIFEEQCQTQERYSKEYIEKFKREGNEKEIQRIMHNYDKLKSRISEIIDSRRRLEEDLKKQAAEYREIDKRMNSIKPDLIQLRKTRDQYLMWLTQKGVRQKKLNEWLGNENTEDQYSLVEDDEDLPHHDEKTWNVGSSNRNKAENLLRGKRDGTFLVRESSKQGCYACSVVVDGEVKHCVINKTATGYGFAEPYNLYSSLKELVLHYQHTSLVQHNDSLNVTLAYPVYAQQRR

C[C@H](Nc1ccc2c(c1)OCCn1cc(N3C(=O)OC[C@H]3C(F)F)nc1-2)C(N)=O [GDC-0077]
IC50 values, recombinant PI3Kα complexes [1]: similar
sensitivity of cell growth to PI3Kα inhibition ([2]; MCF10A): more sensitive
IC50 ([2]; read-out: IC50 [GDC-0077] of MCF10A E545K cells, MCF10A E545K cells, per FIG. 6G): 62.5 nM

Cc1nc(NC(=O)N2CCC[C@H]2C(N)=O)sc1-c1ccnc(C(C)(C)C(F)(F)F)c1 [alpelisib]
compound mutant PI3K pathway signaling on PI3K inhibition [3]: decreases to similar levels
progression free survival ([4]; WT PIK3CA tumors): 7.5 weeks
progression free survival ([4]; double PIK3CA mutant tumors): 48 weeks
PFS (duration of response to PI3K inhibition) ([4]; dual PIK3CA mutant patients): 48 weeks
patients with clinical benefit rate >30 weeks ([4]; dual mutant tumors, p=0.044 vs single): 67%
PFS (duration of response to PI3K inhibition) ([4]; single PIK3CA mutant patients): 17 weeks
progression free survival ([4]; single PIK3CA mutant tumors): 20 weeks
patients with clinical benefit rate >30 weeks ([4]; single mutant tumors): 23%
median PFS, double mutant vs single mutant or WT tumors ([4]; not statistically significant): longer median PFS
compound mutant PI3K pathway signaling on PI3K inhibition [5]: decreases to similar levels
IC50 values, recombinant PI3Kα complexes [1]: similar
cell viability ([2]; Example 1, compound PIK3CA mutants vs single mutants): more significant decrease in cell viability
sensitivity of mutations in trans ([2]; MCF10A E726K/H1047R in trans compared to cis mutants): less sensitive
sensitivity of mutations in trans ([2]; MCF10A E726K/H1047R in trans compared to the single major mutant): no more sensitive
sensitivity of cell growth to PI3Kα inhibition ([2]; MCF10A): more sensitive
fold of inhibition of cell growth ([2]; MCF10A, E545K- and H1047R-containing compound mutants vs single mutants): increased fold of inhibition

CO[C@H]1C[C@@H]2CC[C@@H](C)[C@@](O)(O2)C(=O)C(=O)N2CCCC[C@H]2C(=O)O[C@H]([C@H](C)C[C@@H]2CC[C@@H](OCCO)[C@H](OC)C2)CC(=O)[C@H](C)/C=C(\C)[C@@H](O)[C@@H](OC)C(=O)[C@H](C)C[C@H](C)/C=C/C=C/C=C/1C [everolimus]
sensitivity to downstream PI3K pathway inhibitor ([2]; MCF10A, cis mutants compared to single mutants, serum starvation 4 days): more sensitive

C[C@]12CC[C@@H]3c4ccc(O)cc4C[C@@H](CCCCCCCCC[S+]([O-])CCCC(F)(F)C(F)(F)F)[C@H]3[C@@H]1CC[C@@H]2O (stereo partly drawn) [fulvestrant]
PFS of dual mutant patients vs patients with WT tumors ([6]; fulvestrant): worse PFS
PFS of patients with dual PIK3CA-mutant tumors vs single mutant or WT tumors ([6]; fulvestrant alone): do not have improved

Cc1nc(-c2cn3c(n2)-c2ccc(-c4cnn(C(C)(C)C(N)=O)c4)cc2OCC3)n(C(C)C)n1 [taselisib]
overall response rate ([7]; ctDNA PIK3CA mutant total population): 20.3%
overall response rate ([7]; multiple ctDNA PIK3CA mutant subpopulation): 30.2%
overall response rate ([7]; single ctDNA PIK3CA mutant subpopulation): 18.1%
tumor shrinkage, multiple vs single mutant tumors ([7]; taselisib arm, waterfall plot (FIG. 19B)): tumor shrinkage more

p110α E545K, untagged, full length human
thermal shift assay (soluble p110α by Western blot across a temperature gradient) [8]: Among single mutants, E545K is the most thermally unstable
